In patent US20260176267A1, “PREPARATION OF IMIDAZOPYRIDINE AND IMIDAZOPYRIDAZINE DERIVATIVES AS NOVEL DIACYLGLYCERIDE O-ACYLTRANSFERASE 2 INHIBITORS” (Merck Sharp & Dohme LLC, priority 2022, published 2026):

Target: T1, human DGAT2 (hDGAT2) (Homo sapiens, UniProt Q96PD7)
T1 construct: made in house; host or cells: Sf-9 insect cells (baculovirus), membrane fraction
T1 sequence (Q96PD7 1-388): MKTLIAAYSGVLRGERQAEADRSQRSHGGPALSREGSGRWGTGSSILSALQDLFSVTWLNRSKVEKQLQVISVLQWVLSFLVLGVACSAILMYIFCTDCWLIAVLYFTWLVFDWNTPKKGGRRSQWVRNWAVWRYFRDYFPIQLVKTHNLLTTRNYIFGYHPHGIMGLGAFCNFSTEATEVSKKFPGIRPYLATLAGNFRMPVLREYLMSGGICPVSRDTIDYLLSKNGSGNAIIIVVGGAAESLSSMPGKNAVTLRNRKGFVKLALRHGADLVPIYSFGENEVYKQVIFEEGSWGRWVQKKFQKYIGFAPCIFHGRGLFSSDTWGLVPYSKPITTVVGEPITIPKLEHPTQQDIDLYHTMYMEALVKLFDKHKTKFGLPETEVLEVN
Assay: DGAT2 Enzymatic Activity Assay
Type: biochemical
Settings: membrane prep of Sf-9 cells expressing hDGAT2; 13C18-triolein product by LC/MS/MS; 25 μM diolein, 5 μM 13C oleoyl-CoA, rt
Outline: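 At room temperature, DGAT2 activity in baculovirus-infected Sf-9 membrane preps (human enzyme, untagged) is measured as formation of ^13C18-triolein. Product is extracted and measured by positive-mode LC/MS/MS, with the ratio to spiked ^13C21-triolein giving inhibition and IC50.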

SMILES | IC50
Cc1c(C(=O)NC2(C)CCS(=O)(=O)CC2)nc2ccc(OCc3ncccc3OCC(F)(F)F)cn12 [Example 123, 3-methyl-N-(4-methyl-1,1-dioxo-thian-4-yl)-6-[[3-(2,2,2-trifluoroethoxy)-2-pyridyl]methoxy]imidazo[1,2-a]pyridine-2-carboxamide] | 93 nM
Cc1c(C(=O)NC2(C)CCS(=O)(=O)CC2)nc2ccc(OCc3ccc(F)cc3)cn12 [Example 126, 6-[(4-fluorophenyl)methoxy]-3-methyl-N-(4-methyl-1,1-dioxo-thian-4-yl)imidazo[1,2-a]pyridine-2-carboxamide] | 465 nM
Cc1c(C(=O)NC2(C)CCS(=O)(=O)CC2)nc2ccc(OCCC(F)(F)F)cn12 [Example 128, 3-methyl-N-(4-methyl-1,1-dioxo-thian-4-yl)-6-(3,3,3-trifluoropropoxy)imidazo[1,2-a]pyridine-2-carboxamide] | > 9990 nM
CCOCC(C)(C)COc1ccc2nc(C(=O)NC3(C)CCS(=O)(=O)CC3)c(C)n2c1 [Example 129, 6-(3-ethoxy-2,2-dimethyl-propoxy)-3-methyl-N-(4-methyl-1,1-dioxo-thian-4-yl)imidazo[1,2-a]pyridine-2-carboxamide] | 161 nM
CC1(NC(=O)c2nc3ccc(Oc4ncccc4OCC(F)(F)F)cn3c2O)CCS(=O)(=O)CC1 [Example 131, 3-hydroxy-N-(4-methyl-1,1-dioxo-thian-4-yl)-6-[[3-(2,2,2-trifluoroethoxy)-2-pyridyl]oxy]imidazo[1,2-a]pyridine-2-carboxamide] | 34 nM
CC1(NC(=O)c2nc3ccc(Oc4ncccc4OCC(F)(F)F)cn3c2C(=O)O)CCS(=O)(=O)CC1 [Example 132, 2-((4-methyl-1,1-dioxidotetrahydro-2H-thiopyran-4-yl)carbamoyl)-6-((3-(2,2,2-trifluoroethoxy)pyridin-2-yl)oxy)imidazo[1,2-a]pyridine-3-carboxylic acid] | > 9990 nM
COc1c(C(=O)NC2(C)CS(=O)(=O)C2)nc2ccc(Oc3ncc(F)cc3OCC(F)(F)F)cn12 [Example 135, 6-[[5-fluoro-3-(2,2,2-trifluoroethoxy)-2-pyridyl]oxy]-3-methoxy-N-(3-methyl-1,1-dioxo-thietan-3-yl)imidazo[1,2-a]pyridin-1-ium-2-carboxamide;2,2,2-trifluoroacetate] | 62 nM
CC1(NC(=O)c2nc3ccc(Oc4ncccc4OCC(F)(F)F)cn3c2C(F)(F)F)CCS(=O)(=O)CC1 [Example 136, N-(4-methyl-1,1-dioxo-thian-4-yl)-6-[[3-(2,2,2-trifluoroethoxy)-2-pyridyl]oxy]-3-(trifluoromethyl)imidazo[1,2-a]pyridine-2-carboxamide] | 146 nM
Cc1c(Oc2ncc(Cl)cc2OCC(C)(F)F)ccc2nc(C(=O)NC3(C)CCS(=O)(=O)CC3)c(F)n12 [Example 143, 6-[[5-chloro-3-(2,2-difluoropropoxy)-2-pyridyl]oxy]-3-fluoro-5-methyl-N-(4-methyl-1,1-dioxo-thian-4-yl)imidazo[1,2-a]pyridine-2-carboxamide] | 37 nM

Molecules with a lower IC50, results first:

IC50 | SMILES
5.7 nM | CCOc1ccccc1COc1ccc2nc(C(=O)NC3(C)CCS(=O)(=O)CC3)c(C)n2c1 [Example 124, 6-[(2-ethoxyphenyl)methoxy]-3-methyl-N-(4-methyl-1,1-dioxo-thian-4-yl)imidazo[1,2-a]pyridine-2-carboxamide]
4.9 nM | CCOc1cccnc1COc1ccc2nc(C(=O)NC3(C)CCS(=O)(=O)CC3)c(C)n2c1 [Example 125, 6-[(3-ethoxy-2-pyridyl)methoxy]-3-methyl-N-(4-methyl-1,1-dioxo-thian-4-yl)imidazo[1,2-a]pyridine-2-carboxamide]
6.5 nM | Cc1c(C(=O)NC2(C)CCS(=O)(=O)CC2)nc2ccc(OCc3ccccc3OC(F)F)cn12 [Example 127, 6-[[2-(difluoromethoxy)phenyl]methoxy]-3-methyl-N-(4-methyl-1,1-dioxo-thian-4-yl)imidazo[1,2-a]pyridine-2-carboxamide]
3.3 nM | CC1(NC(=O)c2nc3ccc(Oc4ncccc4OCC(F)(F)F)cn3c2Cl)CCS(=O)(=O)CC1 [Example 130, 3-chloro-N-(4-methyl-1,1-dioxo-thian-4-yl)-6-[[3-(2,2,2-trifluoroethoxy)-2-pyridyl]oxy]imidazo[1,2-a]pyridine-2-carboxamide]
28 nM | CC1(NC(=O)c2nc3ccc(Oc4ncccc4OCC(F)(F)F)cn3c2C(N)=O)CCS(=O)(=O)CC1 [Example 133, N2-(4-methyl-1,1-dioxo-thian-4-yl)-6-[[3-(2,2,2-trifluoroethoxy)-2-pyridyl]oxy-]imidazo[1,2-a]pyridine-2,3-dicarboxamide]
6.2 nM | COc1c(C(=O)NC2(C)CCS(=O)(=O)CC2)nc2ccc(Oc3ncccc3OCC(F)(F)F)cn12 [Example 134, 3-methoxy-N-(4-methyl-1,1-dioxo-thian-4-yl)-6-[[3-(2,2,2-trifluoroethoxy)-2-pyridyl]oxy]imidazo[1,2-a]pyridine-2-carboxamide]
11 nM | CC1(NC(=O)c2nc3ccc(Oc4ncccc4OCC(F)(F)F)cn3c2CO)CCS(=O)(=O)CC1 [Example 137, 3-(hydroxymethyl)-N-(4-methyl-1,1-dioxo-thian-4-yl)-6-[3-(2,2,2-trifluoroethoxy)pyridine-2-yl]oxy-imidazo[1,2-a]pyridine-2-carboxamide]
25 nM | Cc1c(C(=O)NC2(C)CCS(=O)(=O)CC2)nc2cc(C#N)c(Oc3ncc(Cl)cc3OCC(F)(F)F)cn12 [Example 138, 6-[5-chloro-3-(2,2,2-trifluoroethoxy)pyridine-2-yl]oxy-7-cyano-3-methyl-N-(4-methyl-1,1-dioxo-thian-4-yl)imidazo[1,2-a]pyridine-2-carboxamide]
0.7 nM | CC1(NC(=O)c2nc3ccc(Oc4ncc(F)cc4OCC(F)(F)F)c(Cl)n3c2Cl)CCS(=O)(=O)CC1 [Example 139, 3,5-dichloro-6-[[5-fluoro-3-(2,2,2-trifluoroethoxy)-2-pyridyl]oxy]-N-(4-methyl-1,1-dioxo-thian-4-yl)imidazo[1,2-a]pyridine-2-carboxamide]
2.1 nM | CC1(NC(=O)c2nc3ccc(Oc4ncc(F)cc4OCC(F)(F)F)c(Cl)n3c2Cl)CS(=O)(=O)C1 [Example 140, 3,5-dichloro-6-[[5-fluoro-3-(2,2,2-trifluoroethoxy)-2-pyridyl]oxy]-N-(3-methyl-1,1-dioxo-thietan-3-yl)imidazo[1,2-a]pyridine-2-carboxamide]
2.6 nM | Cc1c(Oc2ncc(Cl)cc2OCC(F)(F)F)ccc2nc(C(=O)NC3(C)CCS(=O)(=O)CC3)c(Cl)n12 [Example 141, 3-chloro-6-[[5-chloro-3-(2,2,2-trifluoroethoxy)-2-pyridyl]oxy]-5-methyl-N-(4-methyl-1,1-dioxo-thian-4-yl)imidazo[1,2-a]pyridine-2-carboxamide]
3.5 nM | Cc1c(Oc2ncc(Cl)cc2OCC(F)(F)F)ccc2nc(C(=O)NC3(C)CCS(=O)(=O)CC3)c(F)n12 [Example 142, 6-[[5-chloro-3-(2,2,2-trifluoroethoxy)-2-pyridyl]oxy]-3-fluoro-5-methyl-N-(4-methyl-1,1-dioxo-thian-4-yl)imidazo[1,2-a]pyridine-2-carboxamide]
8.9 nM | Cc1cnc(Oc2ccc3nc(C(=O)NC4(C)CCS(=O)(=O)CC4)c(C)n3c2)c(OCC(F)(F)F)c1 [Example 144, 3-methyl-N-(4-methyl-1,1-dioxo-thian-4-yl)-6-[[5-methyl-3-(2,2,2-trifluoroethoxy)-2-pyridyl]oxy]imidazo[1,2-a]pyridine-2-carboxamide]
